Experimental data published in article PMC6254802, “Development of a High-Throughput Assay for Screening of γ-Secretase Inhibitor with Endogenous Human, Mouse or Drosophila γ-Secretase” (Molecules, 2009).
Read-outs that look alike come from different tables or passages of the source.

What was measured:
human γ-secretase = target: T1, human γ-secretase (Homo sapiens, UniProt P49768); assay: Fluorogenic substrate assay with endogenous human γ-secretase from HEK293T cell membrane; assay type: biochemical; conditions: for IC50: 10 μg membrane protein, 6 μM substrate, 5 h, 37 °C, mean ± SEM; for maximal inhibition: human γ-secretase, relative to 1 μM L685,458 = 100%
T1 construct: endogenously expressing human γ-secretase from HEK293T cell membrane; endogenous in cells; host or cells: HEK293T cells (membrane fraction, solubilised with 0.25% CHAPSO)
Description: All procedures were carried out at 4 °C. […] Mouse cortex was homogenized with 15 stokes of pestle A in the same lysis buffer. The homogenates were centrifuged at 800 g for 10 min to remove nuclei and large debris. The supernatants were centrifuged at 25,000 g for 1 h at 4 °C and the membrane pellets were resuspended in reaction buffer containing 50 mM Tris-HCl (pH 6.8), 2 mM EDTA, 150 mM KCl and Complete^TM protease inhibitor cocktail.
For assay optimization, aliquots of membrane protein (5~30 μg) was added to each well of a 96-well plate with various concentrations of fluorogenic substrate (4~8 μM). Different concentrations of compounds were added and the final reaction system was adjusted to 100 μL/well with the reaction buffer. The plate was incubated at 37 °C in a humidified atmosphere for indicated time periods. Fluorescence was measured using a BIOTEK FLX800 microplate reader with the excitation wavelength at 355 nm and the emission wavelength at 440 nm. The activity of γ-secretase was presented as the relative fluorescent unit (RFU). For compound screening, 1 μM of L685,458 was used as a positive control, and 1% DMSO was used as negative control.
(§1) Data were analyzed with GraphPad Prism software (GraphPad, San Diego, CA, USA). Non-linear regression analyses were performed to generate dose-response curves and calculate IC50 values, and linear regression was used to analyze data reproducibility. Mean ± SEM was calculated automatically with this software. Z’ factor was calculated by the following equation: Z’ = 1 - (3SD++3SD-) / │Ave+ - Ave-│ in which SD+ is the standard deviation of positive control, SD-is the standard deviation of negative control, Ave+ is the mean value of the positive control, and Ave-is the mean value of the negative control.

γ-secretase (Aβ40, Aβ42) [1] = target: γ-secretase (Aβ40, Aβ42); design: method as in PMID 15341524; conditions: Aβ ELISA assay, cited from earlier work
mouse γ-secretase = assay: Fluorogenic substrate assay with mouse γ-secretase from mouse cortex membrane; assay type: biochemical; conditions: mean ± SEM, n = 3
Description: All procedures were carried out at 4 °C. HEK 293T or S2 cells were washed with ice-cold PBS by centrifugation at 500 g for 5 min and the pellets were homogenized with a Dounce homogenizer (pestle B, 15 strokes) in lysis buffer contained 5 mM Tris-HCl (pH 7.4), 5 mM EDTA, 5 mM EGTA and Complete^TM protease inhibitor cocktail. Mouse cortex was homogenized with 15 stokes of pestle A in the same lysis buffer. The homogenates were centrifuged at 800 g for 10 min to remove nuclei and large debris. The supernatants were centrifuged at 25,000 g for 1 h at 4 °C and the membrane pellets were resuspended in reaction buffer containing 50 mM Tris-HCl (pH 6.8), 2 mM EDTA, 150 mM KCl and Complete^TM protease inhibitor cocktail. After measuring the protein concentration, the membranes were diluted to 1 mg/ml in 50 mM Tris-HCl, pH 6.8, 2 mM EDTA, 150 mM KCl, 0.25% CHAPSO.
For assay optimization, aliquots of membrane protein (5~30 μg) was added to each well of a 96-well plate with various concentrations of fluorogenic substrate (4~8 μM). Different concentrations of compounds were added and the final reaction system was adjusted to 100 μL/well with the reaction buffer. The plate was incubated at 37 °C in a humidified atmosphere for indicated time periods. Fluorescence was measured using a BIOTEK FLX800 microplate reader with the excitation wavelength at 355 nm and the emission wavelength at 440 nm. The activity of γ-secretase was presented as the relative fluorescent unit (RFU). For compound screening, 1 μM of L685,458 was used as a positive control, and 1% DMSO was used as negative control. The inhibition rate of each compound was calculated with the following equation: InhibitionCompound % = (Average Value1%DMSO-Average Value Compound)/(Average Value1%DMSO-Average ValueL685,458) × 100%. So the inhibition rate of 1 μM L685,458 is 100% and that of 1% DMSO is 0. The samples showing more than 60% inhibition were considered as “hits” in the screening.
as §1

γ-secretase [2] = target: γ-secretase; design: method as in PMID 16569643; conditions: in vitro γ-secretase assay; read-out: Reported IC50; cited from earlier work
drosophila γ-secretase = target: T2, drosophila γ-secretase (Drosophila melanogaster, UniProt O02194); assay: Fluorogenic substrate assay with drosophila γ-secretase from S2 cell membrane; assay type: biochemical
T2 construct: membrane containing drosophila or mouse γ-secretase was isolated from S2 cells or mouse cortex, respectively; host or cells: Drosophila Schneider 2 (S2) cells, membrane fraction

γ-secretase (Aβ40, Aβ42) [3] = target: γ-secretase (Aβ40, Aβ42); design: method as in PMID 11574530; conditions: immunoblotting assay, cited from earlier work
γ-secretase (Aβ) = conditions: In vivo γ-secretase assay; read-out: Reported IC50 (Aβ); cited from earlier work
Aβ1-42 = system: Aβ1-42; design: method as in PMID 10882355; conditions: read-out: Reported IC50 (Aβ1-42); cited from earlier work
Sup-T1 NICT = system: Sup-T1 NICT; design: method as in PMID 15319485; conditions: Sup-T1 NICT assay; read-out: Reported IC50; cited from earlier work
γ-secretase [4] = target: γ-secretase; design: method as in PMID 10913280; conditions: HTRF assay; read-out: Reported IC50; cited from earlier work
[5] = S2 cell membrane, mean ± SEM, n = 3, read-out: drosophila γ-secretase IC50

T2 sequence (O02194 whole entry): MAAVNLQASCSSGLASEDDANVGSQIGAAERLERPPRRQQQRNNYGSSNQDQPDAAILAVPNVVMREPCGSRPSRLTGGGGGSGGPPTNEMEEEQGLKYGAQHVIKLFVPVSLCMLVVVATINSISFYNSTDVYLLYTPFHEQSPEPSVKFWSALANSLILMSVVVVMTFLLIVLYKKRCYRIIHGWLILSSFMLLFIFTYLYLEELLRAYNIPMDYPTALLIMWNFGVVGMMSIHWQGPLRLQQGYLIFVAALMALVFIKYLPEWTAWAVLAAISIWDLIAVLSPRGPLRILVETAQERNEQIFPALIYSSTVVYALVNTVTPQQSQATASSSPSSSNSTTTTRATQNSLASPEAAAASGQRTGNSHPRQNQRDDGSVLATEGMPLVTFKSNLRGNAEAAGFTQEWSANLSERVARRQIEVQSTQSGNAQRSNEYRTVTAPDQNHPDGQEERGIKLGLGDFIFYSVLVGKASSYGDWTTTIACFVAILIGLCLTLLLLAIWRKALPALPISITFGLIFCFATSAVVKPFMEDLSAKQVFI
T2 sequence (Q9VC27 23-695 partner): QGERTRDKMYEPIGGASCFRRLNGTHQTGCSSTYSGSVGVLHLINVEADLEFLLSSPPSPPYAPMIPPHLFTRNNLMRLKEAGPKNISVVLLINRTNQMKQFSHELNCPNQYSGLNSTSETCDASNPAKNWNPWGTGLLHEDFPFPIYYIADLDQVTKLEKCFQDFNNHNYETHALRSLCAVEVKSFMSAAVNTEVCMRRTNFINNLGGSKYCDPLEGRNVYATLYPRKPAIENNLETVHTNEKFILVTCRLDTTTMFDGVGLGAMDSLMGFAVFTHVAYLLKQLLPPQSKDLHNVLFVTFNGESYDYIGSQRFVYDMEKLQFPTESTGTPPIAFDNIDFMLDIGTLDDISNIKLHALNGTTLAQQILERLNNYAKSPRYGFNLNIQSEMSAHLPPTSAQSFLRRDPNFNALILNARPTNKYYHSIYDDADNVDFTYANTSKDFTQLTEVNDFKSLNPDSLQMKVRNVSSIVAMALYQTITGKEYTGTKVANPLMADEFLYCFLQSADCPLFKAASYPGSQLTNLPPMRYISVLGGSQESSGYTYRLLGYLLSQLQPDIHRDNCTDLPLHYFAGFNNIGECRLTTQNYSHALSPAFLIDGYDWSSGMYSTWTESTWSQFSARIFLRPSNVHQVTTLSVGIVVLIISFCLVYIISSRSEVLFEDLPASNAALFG
T2 sequence (Q9VQG2 whole entry partner): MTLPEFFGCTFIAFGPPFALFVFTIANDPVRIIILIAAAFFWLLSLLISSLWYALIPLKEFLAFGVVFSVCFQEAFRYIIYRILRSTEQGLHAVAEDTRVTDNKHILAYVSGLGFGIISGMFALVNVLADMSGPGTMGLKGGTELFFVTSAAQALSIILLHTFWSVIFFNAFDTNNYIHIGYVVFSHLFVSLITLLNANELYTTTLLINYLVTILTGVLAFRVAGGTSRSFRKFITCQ
T2 sequence (Q86BE9 whole entry partner): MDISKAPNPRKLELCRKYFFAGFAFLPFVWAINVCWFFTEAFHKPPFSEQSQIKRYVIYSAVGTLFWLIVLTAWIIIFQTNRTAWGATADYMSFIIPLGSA

SMILES	IC50 (human γ-secretase) [nM]	maximal inhibition (human γ-secretase) [%]	IC50 (γ-secretase (Aβ40, Aβ42) [1]; read-out: Reported IC50 (Aβ40)) [nM]	IC50 (γ-secretase (Aβ40, Aβ42) [1]; read-out: Reported IC50 (Aβ42)) [nM]	IC50 (mouse γ-secretase) [nM]	IC50 (γ-secretase [2]) [nM]	IC50 (drosophila γ-secretase) [nM]	IC50 (γ-secretase (Aβ40, Aβ42) [3]; read-out: Reported IC50 (Aβ40)) [nM]	IC50 (γ-secretase (Aβ40, Aβ42) [3]; read-out: Reported IC50 (Aβ42)) [nM]	IC50 (drosophila γ-secretase; [5]) [nM]	IC50 (γ-secretase (Aβ)) [nM]	IC50 (Aβ1-42) [nM]	IC50 (Sup-T1 NICT) [nM]	IC50 (γ-secretase [4]) [nM]
C[C@H](NC(=O)Cc1cc(F)cc(F)c1)C(=O)N[C@H]1N=C(c2ccccc2)c2ccccc2N(C)C1=O [Compound E]	53.9 ± 5.31	92.3	0.8	7	2.4 ± 0.605	7	40.5 ± 7	0.24	0.37	–	–	–	–	–
COC(=O)[C@@H](NC(=O)[C@H](CC(C)C)NC(=O)N(Cc1ccccc1)C[C@@H](O)[C@H](Cc1ccccc1)NC(=O)OC(C)(C)C)C(C)C [31C]	53.5 ± 13.6	103.1	–	–	20.7 ± 5.24	–	–	–	–	0.933 ± 0.169	300	–	–	–
C[C@H](NC(=O)Cc1cc(F)cc(F)c1)C(=O)N[C@H](C(=O)OC(C)(C)C)c1ccccc1 [DAPT, N-[N-(3,5-difluorophenacetyl)-L-alanyl]-S-phenylglycine t-butyl ester]	3910 ± 551	69.7	1600	4000	–	–	–	–	–	–	–	–	–	–
CC12CCC(C1)C(C)(C)C2NS(=O)(=O)c1ccc(F)cc1 (stereo not drawn) [Inhibitor VI]	44500 ± 25600	67.3	–	–	–	–	–	–	–	–	–	1800	–	–
C[C@H](NC(=O)Cc1cc(F)cc(F)c1)C(=O)N[C@@H]1C(=O)N(C)c2ccccc2-c2ccccc21 [DBZ]	12.5 ± 5.76	95.2	–	–	1.45 ± 0.435	–	–	–	–	6.97 ± 1.98	–	–	1.7	–
CC(C)C[C@H](NC(=O)[C@H](Cc1ccccc1)C[C@@H](O)[C@H](Cc1ccccc1)NC(=O)OC(C)(C)C)C(=O)N[C@@H](Cc1ccccc1)C(N)=O [L685,458]	4.43 ± 0.969	–	–	–	0.976 ± 0.147	3	–	4	8	10.3 ± 1.66	–	–	–	17
